{
  "source": "ChEMBL document CHEMBL6083179",
  "about": "“Glucagon-like peptide-1 analogs: Miracle drugs are blooming?” (Eur J Med Chem, 2024)",
  "key": {"[1]": {"assay": "Inhibition of Ornithorhynchus anatinus GLP-1"}, "[2]": {"biological_target": "T1, Glucagon-1 (Xenopus laevis, UniProt O42143)", "T1 sequence (O42143 whole entry)": "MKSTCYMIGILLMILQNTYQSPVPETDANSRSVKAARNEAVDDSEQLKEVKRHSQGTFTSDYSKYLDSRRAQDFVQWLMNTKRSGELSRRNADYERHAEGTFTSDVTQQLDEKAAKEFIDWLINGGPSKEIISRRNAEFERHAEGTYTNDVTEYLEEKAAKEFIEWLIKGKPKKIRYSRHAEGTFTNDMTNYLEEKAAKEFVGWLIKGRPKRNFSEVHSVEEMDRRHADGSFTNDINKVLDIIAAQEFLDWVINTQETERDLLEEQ", "assay": "Inhibition of Xenopus laevis GLP-1C (1 to 30 residues)"}, "[3]": {"biological_target": "T1, Glucagon-1", "assay": "Inhibition of Xenopus laevis GLP-1A (1 to 37 residues)"}, "[4]": {"biological_target": "T1, Glucagon-1", "assay": "Inhibition of Xenopus laevis GLP-1B (1 to 32 residues)"}},
  "data": [
    {"molecule": "H-HFDGVYTDYFSRYLEEKATNEFIDWLLKGQE-OH", "values": [
      {"measurement": "IC50", "setting": "[1]", "value": 7.4, "unit": "nM"}
    ]},
    {"molecule": "H-HAEGTFTNDMTNYLEEKAAKEFVGWLIKGRPK-OH", "values": [
      {"measurement": "IC50", "setting": "[2]", "value": 43.4, "unit": "nM"}
    ]},
    {"molecule": "CC[C@H](C)[C@H](NC(=O)[C@H](CC(C)C)NC(=O)[C@H](Cc1c[nH]c2ccccc12)NC(=O)[C@H](CC(=O)O)NC(=O)[C@@H](NC(=O)[C@H](Cc1ccccc1)NC(=O)[C@H](CCC(=O)O)NC(=O)[C@H](CCCCN)NC(=O)[C@H](C)NC(=O)[C@H](C)NC(=O)[C@H](CCCCN)NC(=O)[C@H](CCC(=O)O)NC(=O)[C@H](CC(=O)O)NC(=O)[C@H](CC(C)C)NC(=O)[C@H](CCC(N)=O)NC(=O)[C@H](CCC(N)=O)NC(=O)[C@@H](NC(=O)[C@@H](NC(=O)[C@H](CC(=O)O)NC(=O)[C@H](CO)NC(=O)[C@@H](NC(=O)[C@H](Cc1ccccc1)NC(=O)[C@@H](NC(=O)CNC(=O)[C@H](CCC(=O)O)NC(=O)[C@H](C)NC(=O)[C@@H](N)Cc1c[nH]cn1)[C@@H](C)O)[C@@H](C)O)C(C)C)[C@@H](C)O)[C@@H](C)CC)C(=O)N[C@@H](CC(N)=O)C(=O)NCC(=O)NCC(=O)N1CCC[C@H]1C(=O)N[C@@H](CO)C(=O)N[C@@H](CCCCN)C(=O)N[C@@H](CCC(=O)O)C(=O)N[C@H](C(=O)N[C@H](C(=O)N[C@@H](CO)C(=O)O)[C@@H](C)CC)[C@@H](C)CC", "values": [
      {"measurement": "IC50", "setting": "[3]", "value": 12.7, "unit": "nM"}
    ]},
    {"molecule": "H-HSEGTFTNDVTRLLEEKATSEFIAWLLKGLE-OH", "values": [
      {"measurement": "IC50", "setting": "[1]", "value": 7.4, "unit": "nM"}
    ]},
    {"molecule": "CC[C@H](C)[C@H](NC(=O)[C@H](CC(C)C)NC(=O)[C@H](Cc1c[nH]c2ccccc12)NC(=O)[C@H](CCC(=O)O)NC(=O)[C@@H](NC(=O)[C@H](Cc1ccccc1)NC(=O)[C@H](CCC(=O)O)NC(=O)[C@H](CCCCN)NC(=O)[C@H](C)NC(=O)[C@H](C)NC(=O)[C@H](CCCCN)NC(=O)[C@H](CCC(=O)O)NC(=O)[C@H](CCC(=O)O)NC(=O)[C@H](CC(C)C)NC(=O)[C@H](Cc1ccc(O)cc1)NC(=O)[C@H](CCC(=O)O)NC(=O)[C@@H](NC(=O)[C@@H](NC(=O)[C@H](CC(=O)O)NC(=O)[C@H](CC(N)=O)NC(=O)[C@@H](NC(=O)[C@H](Cc1ccc(O)cc1)NC(=O)[C@@H](NC(=O)CNC(=O)[C@H](CCC(=O)O)NC(=O)[C@H](C)NC(=O)[C@@H](N)Cc1c[nH]cn1)[C@@H](C)O)[C@@H](C)O)C(C)C)[C@@H](C)O)[C@@H](C)CC)C(=O)N[C@@H](CCCCN)C(=O)NCC(=O)N[C@@H](CCCCN)C(=O)N1CCC[C@H]1C(=O)N[C@@H](CCCCN)C(=O)O", "values": [
      {"measurement": "IC50", "setting": "[4]", "value": 2.9, "unit": "nM"}
    ]}
  ]
}
